{
  "source": "paper PMC12322656",
  "about": "“N‐ to C‐Glycoside Rearrangement of Uridine 5′‐Phosphate in Two Enzymatic Steps for the Production of Pseudouridine 5′‐Phosphate” (Biotechnology and Bioengineering, 2025)",
  "key": {"[1]": {"target": "T1, PpnN (purine/pyrimidine nucleotide 5'-phosphate nucleosidase; EC 3.2.2.10) (Escherichia coli, UniProt P0ADR8, R341A/Y347A)", "T1 construct": "subunit 51,794 Da (wild type; RY 51,440 Da); wild type tetramer, RY variant monomer", "T1 sequence (P0ADR8 1-454 R341A/Y347A)": "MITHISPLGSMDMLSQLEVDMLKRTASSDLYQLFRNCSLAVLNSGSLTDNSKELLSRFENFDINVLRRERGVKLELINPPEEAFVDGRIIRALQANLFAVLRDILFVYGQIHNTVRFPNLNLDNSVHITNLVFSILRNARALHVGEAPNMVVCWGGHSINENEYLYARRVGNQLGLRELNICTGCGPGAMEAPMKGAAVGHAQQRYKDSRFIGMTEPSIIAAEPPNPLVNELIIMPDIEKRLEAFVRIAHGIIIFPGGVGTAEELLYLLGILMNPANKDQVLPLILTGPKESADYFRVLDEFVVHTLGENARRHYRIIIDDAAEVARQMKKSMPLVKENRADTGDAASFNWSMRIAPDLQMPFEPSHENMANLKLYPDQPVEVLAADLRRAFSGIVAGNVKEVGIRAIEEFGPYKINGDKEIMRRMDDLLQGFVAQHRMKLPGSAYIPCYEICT", "assay": "initial-rate inhibition, HPLC of uracil release, nonlinear fit", "assay_type": "biochemical", "conditions": "substrate UMP; 50 mM HEPES pH 7.5, 40 °C; competitive; RY variant, monomer"}, "[2]": {"target": "T2, PpnN (purine/pyrimidine nucleotide 5'-phosphate nucleosidase; EC 3.2.2.10) (Escherichia coli, UniProt P0ADR8)", "T2 construct": "subunit 51,794 Da (wild type; RY 51,440 Da); wild type tetramer, RY variant monomer", "T2 sequence (P0ADR8 1-454)": "T1 sequence (P0ADR8 1-454 R341A/Y347A) with A341R, A347Y", "assay": "initial-rate inhibition, HPLC of uracil release, nonlinear fit", "assay_type": "biochemical", "conditions": "substrate UMP; 50 mM HEPES pH 7.5, 40 °C; competitive; wild type"}},
  "note": "Changes are numbered by the printed parent chain.",
  "data": [
    {"smiles": "O=P(O)(O)OC[C@H]1OC(O)[C@H](O)[C@@H]1O", "note": "(stereo partly drawn) [D-ribose 5-phosphate]", "values": [
      {"measurement": "Ki", "setting": "[1]", "result": "1200 ± 100", "unit": "µM"},
      {"measurement": "Ki", "setting": "[2]", "result": 100, "unit": "µM"}
    ]}
  ]
}
